Active and inactive are the calls of the source. For most assays here, no stated cut-off is given here; in the data, actives have a measured EC50 and inactives only a lower limit.

In one assay the target is T1, Protein RecA (Mycobacterium tuberculosis, UniProt P9WHJ3).
T1 sequence (P9WHJ3 whole entry): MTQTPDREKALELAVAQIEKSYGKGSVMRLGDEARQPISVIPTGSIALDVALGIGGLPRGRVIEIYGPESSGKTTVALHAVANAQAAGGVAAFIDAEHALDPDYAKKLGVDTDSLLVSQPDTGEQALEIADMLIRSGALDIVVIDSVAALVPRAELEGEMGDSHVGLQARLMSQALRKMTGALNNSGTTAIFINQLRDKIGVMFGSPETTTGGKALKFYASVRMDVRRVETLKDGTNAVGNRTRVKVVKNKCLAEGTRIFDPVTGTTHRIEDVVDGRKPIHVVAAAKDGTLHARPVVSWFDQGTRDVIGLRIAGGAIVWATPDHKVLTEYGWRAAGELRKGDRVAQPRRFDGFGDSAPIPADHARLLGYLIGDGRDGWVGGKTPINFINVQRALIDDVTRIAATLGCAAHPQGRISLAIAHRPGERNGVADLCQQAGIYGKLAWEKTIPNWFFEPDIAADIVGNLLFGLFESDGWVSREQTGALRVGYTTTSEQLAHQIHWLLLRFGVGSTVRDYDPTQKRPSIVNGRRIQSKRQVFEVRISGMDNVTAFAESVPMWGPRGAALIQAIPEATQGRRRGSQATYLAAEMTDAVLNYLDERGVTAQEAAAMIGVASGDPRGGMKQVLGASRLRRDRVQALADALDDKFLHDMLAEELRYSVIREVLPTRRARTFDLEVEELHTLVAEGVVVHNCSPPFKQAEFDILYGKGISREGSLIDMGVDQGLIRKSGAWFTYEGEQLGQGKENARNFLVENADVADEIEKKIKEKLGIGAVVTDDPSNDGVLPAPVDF
Kind of assay: Fluorescence Cell-Free Homogeneous Dose Retest to Identify Inhibitors of RecA-Intein Splicing Activity. [Related pubchem assays (depositor defined):AID2097, AID2223, AID489010, AID492950]. It counts as functional.
Settings: not given
In the case of `O=C1c2ccccc2-c2nnc(-c3ccc(O)cc3)cc21`, the EC50 (commonly the midpoint of the concentration-response curve) is 1.13 µM (active).

Take `CN(CCC#N)C(=O)Cn1nc(Cc2ccncc2)c2ccccc2c1=O`: the EC50 is > 380 µM (inactive).

`Cc1ccc2[nH]c3c(c2c1)CN(C(=O)CN1CCSCC1)CC3`: the EC50 is 0.132 µM (active).

As for `Cn1c(SCC(=O)NCC2CCCO2)ncc(C(=O)Nc2ccc(Cl)cc2)c1=O` (stereo not drawn), the EC50 was 1.13 µM (active).

On to `COC1(OC)C(/C=C/c2ccc(C)cc2)C(C#N)(C#N)C1(OC)OC` (stereo not drawn), for which the EC50 was > 380 µM (inactive).

In the case of `CCO/C(O)=C1\C(C)=NC(SCc2cc(O)[nH]n2)=C(C#N)C1c1cccs1` (stereo not drawn), the EC50 was 4.99 µM (active).

Test system in another assay: not listed separately
The assay can be described thus: Luminescence Cell-Based Dose Confirmation HTS to Identify Activators of 5'UTR Stem-Loop Driven Alpha-Synuclein mRNA Translation in H4 Neuroglioblastoma Cells. [Related pubchem assays: 1829 (Project Summary), 1814 (Primary HTS)]. It counts as functional.
Settings: not given
For the molecule `Cc1cc(C)nc(Nc2n[nH]c(-c3ccccc3Cl)n2)n1`, the EC50 is 12.3 µM (active).

As for `CCOc1ccc2nc(NC(=O)CSc3nc(SC)ns3)sc2c1`, the EC50 was 12.7 µM (active).

Regarding `CC(C)(C)c1ccc(C(=O)C2CCCN(Cc3ccon3)C2)cc1` (stereo not drawn), the EC50 was 14.6 µM (active).

On to `Cc1ccc(S(=O)(=O)NC(=Nc2ccccn2)c2ccc(Cl)cc2)cc1`, for which the EC50 is reported as > 120 µM (not active).

Turning to `Cc1cc(C(=O)OCC(=O)N2CCc3ccccc32)c(C)o1`, the EC50 is 5.44 µM (active).

Turning to `COc1ccc2nc(N3C(=O)C(O)=C(C(=O)c4ccco4)C3c3ccccc3OC)sc2c1` (stereo not drawn), the half-maximal effective concentration (EC50) is recorded as > 120 µM (not active).

For the molecule `O=C1C(Cl)=C(NCCCN2CCOCC2)C(=O)N1CCc1ccccc1`, the EC50 was 6.1 µM (active).

The subject of the next assay is H4. The assay can be described thus: Luminescence Cell-Based Dose Response HTS to Identify Activators of 5'UTR Stem-Loop Driven Prion Protein mRNA Translation in H4 Neuroglioblastoma Cells. [Related pubchem assays: 1829 (Project Summary), 1814 (Primary HTS)]. It counts as functional. The conditions noted are these: Homo sapiens.
For the molecule `Cc1cc(C)nc(Nc2n[nH]c(-c3ccccc3Cl)n2)n1`, the EC50 is 52.7 µM (inconclusive).

Take `CCOc1ccc2nc(NC(=O)CSc3nc(SC)ns3)sc2c1`: the EC50 was 47.5 µM (active).

In the case of `CC(C)(C)c1ccc(C(=O)C2CCCN(Cc3ccon3)C2)cc1` (stereo not drawn), the EC50 is 17.2 µM (active).

Consider `Cc1ccc(S(=O)(=O)NC(=Nc2ccccn2)c2ccc(Cl)cc2)cc1`, for which the EC50 was > 120 µM (not active).

As for `Cc1cc(C(=O)OCC(=O)N2CCc3ccccc32)c(C)o1`, the EC50 was 13.4 µM (active).

With `COc1ccc2nc(N3C(=O)C(O)=C(C(=O)c4ccco4)C3c3ccccc3OC)sc2c1` (stereo not drawn), the concentration for a half-maximal effect (EC50) was 32.4 µM (active).

Consider `O=C1C(Cl)=C(NCCCN2CCOCC2)C(=O)N1CCc1ccccc1`, for which the EC50 was 45.1 µM (active).

The target of a further assay is T2, Replicative DNA helicase DnaB (Mycobacterium tuberculosis, UniProt P9WMR3).
T2 sequence (P9WMR3 whole entry): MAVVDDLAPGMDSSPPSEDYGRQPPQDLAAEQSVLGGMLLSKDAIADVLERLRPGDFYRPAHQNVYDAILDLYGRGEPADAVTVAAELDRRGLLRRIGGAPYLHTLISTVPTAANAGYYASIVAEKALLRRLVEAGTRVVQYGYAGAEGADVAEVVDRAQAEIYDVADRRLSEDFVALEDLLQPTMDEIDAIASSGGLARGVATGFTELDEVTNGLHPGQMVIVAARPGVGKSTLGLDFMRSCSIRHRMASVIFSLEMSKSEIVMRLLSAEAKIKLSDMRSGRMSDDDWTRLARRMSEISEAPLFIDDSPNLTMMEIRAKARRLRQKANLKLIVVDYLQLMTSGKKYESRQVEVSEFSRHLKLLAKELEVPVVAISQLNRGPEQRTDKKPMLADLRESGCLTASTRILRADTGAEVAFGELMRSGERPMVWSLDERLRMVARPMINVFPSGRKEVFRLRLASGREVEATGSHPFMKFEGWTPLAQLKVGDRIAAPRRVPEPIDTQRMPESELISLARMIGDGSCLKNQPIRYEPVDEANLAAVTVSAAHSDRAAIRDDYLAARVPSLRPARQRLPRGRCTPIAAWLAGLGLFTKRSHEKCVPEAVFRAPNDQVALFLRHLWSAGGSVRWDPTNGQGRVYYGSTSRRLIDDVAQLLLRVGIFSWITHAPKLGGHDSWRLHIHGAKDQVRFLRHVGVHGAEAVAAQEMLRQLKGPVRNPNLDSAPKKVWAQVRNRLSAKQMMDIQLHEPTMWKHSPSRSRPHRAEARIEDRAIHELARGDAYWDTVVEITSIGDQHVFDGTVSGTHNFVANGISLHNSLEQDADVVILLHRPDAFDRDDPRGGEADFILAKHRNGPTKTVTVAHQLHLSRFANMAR
Kind of assay: DnaB intein splicing inhibitors, dose response, biochemical, cell-free fluorescence (AID 449749). The assay is classed as functional.
Settings: not given
As for `O=C1c2ccccc2-c2nnc(-c3ccc(O)cc3)cc21`, the AC50 – broadly, the midpoint of the concentration-response curve, whichever way the signal moves – is 15.4 µM (active).

For `CN(CCC#N)C(=O)Cn1nc(Cc2ccncc2)c2ccccc2c1=O`, the AC50 is > 380 µM (inactive).

Regarding `Cc1ccc2[nH]c3c(c2c1)CN(C(=O)CN1CCSCC1)CC3`, the AC50 is > 380 µM (inconclusive).

For the molecule `Cn1c(SCC(=O)NCC2CCCO2)ncc(C(=O)Nc2ccc(Cl)cc2)c1=O` (stereo not drawn), the AC50 was > 380 µM (inactive).

With `COC1(OC)C(/C=C/c2ccc(C)cc2)C(C#N)(C#N)C1(OC)OC` (stereo not drawn), the AC50 is > 380 µM (inactive).

Regarding `CCO/C(O)=C1\C(C)=NC(SCc2cc(O)[nH]n2)=C(C#N)C1c1cccs1` (stereo not drawn), the AC50 was 6.16 µM (active).

Test system in another assay: not listed separately
The assay can be described thus: Luminescence Cell-Based Dose Response HTS to Identify Activators of Luciferase Translation or Activity in H4 […] Cells. [Related pubchem assays: 1829 (Project Summary), 1814 (Primary HTS)].
Settings: not given
It counts as functional.
With `Cc1cc(C)nc(Nc2n[nH]c(-c3ccccc3Cl)n2)n1`, the EC50 is 19.8 µM (active).

Take `CCOc1ccc2nc(NC(=O)CSc3nc(SC)ns3)sc2c1`: the EC50 is 8.43 µM (active).

On to `CC(C)(C)c1ccc(C(=O)C2CCCN(Cc3ccon3)C2)cc1` (stereo not drawn), for which the EC50 was 18.3 µM (active).

As to `Cc1ccc(S(=O)(=O)NC(=Nc2ccccn2)c2ccc(Cl)cc2)cc1`, the EC50 was 34.8 µM (active).

Take `Cc1cc(C(=O)OCC(=O)N2CCc3ccccc32)c(C)o1`: the EC50 was 21.6 µM (active).

For the molecule `COc1ccc2nc(N3C(=O)C(O)=C(C(=O)c4ccco4)C3c3ccccc3OC)sc2c1` (stereo not drawn), the EC50 was > 120 µM (not active).

As for `O=C1C(Cl)=C(NCCCN2CCOCC2)C(=O)N1CCc1ccccc1`, the EC50 is 15.3 µM (active).

The values above are taken from ChEMBL document CHEMBL1201862, “PubChem BioAssay data set” (2004).
